The values below come from patent US20070265456A1, “Novel crystal forms of atorvastatin hemi-calcium and processes for their preparation as well as novel processes for preparing other forms” (priority 2006, published 2007).

The nature of the data set: Stability testing against formation of the impurities atorvastatin-epoxy-dihydroxy (AED) and epoxydiketone on storage. Type of data set: physicochemical. Details: key to ATV-epoxy-diketone: impurity content in % (w/w). Here is the method:
As used herein, the term “stable” in reference to atorvastatin hemi-calcium Form VIII relates to the formation of […] 0.01% (w/w) of the impurity AED. The stability of Form VIII is measured by maintaining Form VIII at a temperature of about 40° C. at a relative humidity of about 75% for at least about 1 month, or at a temperature of about 25° C. at a relative humidity of about 60% for at least about 6 months. Stable atorvastatin hemi-calcium Form VIII is a Form VIII in which no more than about 0.01% (w/w) of the AED impurity is formed when maintained under the conditions specified above.
The atorvastatin hemi-calcium crystalline produced above was dried by two steps: In a vacuum dryer at about 40° C. by 3 cycles and after the LOD<5% was reached the drying was continued in a fluid bed dryer at about 50° C. The dry material was milled and micronized.
The dried, milled, atorvastatin hemi-calcium crystalline was tested for stability against the formation of two potential impurities: atorvastatin-epoxy-dihydroxy (AED) and epoxydiketone.

Where [1] appears, read: 0 (5 m at storage) (Test Sample B).
Where [2] appears, read: 1 m/25° C./60% RH (Test Sample E).
Setting [3] is: 1 m/40° C./75% RH (Test Sample I).
Where [4] appears, read: 2 m/25° C./60% RH (Test Sample F).
The mark [5] stands for this setting: 2 m/40° C./75% RH (Test Sample J).
Where [6] appears, read: 3 m/25° C./60% RH (Test Sample G).
Where [7] appears, read: 3 m/40° C./75% RH (Test Sample K).
Where [8] appears, read: 6 m/25° C./60% RH (Test Sample H).
Where [9] appears, read: 6 m/40° C./75% RH (Test Sample L).

Regarding `CC(C)c1c(C(=O)Nc2ccccc2)c(-c2ccccc2)c(-c2ccc(F)cc2)n1CC[C@@H](O)C[C@@H](O)CC(=O)O` (relative stereo) [atorvastatin hemi-calcium crystalline, atorvastatin hemi-calcium], the ATV-epoxy-dihydroxy (AED) runs as follows: under setting [1], < 0.01 % (w/w); under setting [2], < 0.01 % (w/w); under setting [3], < 0.01 % (w/w); under setting [4], < 0.01 % (w/w); under setting [5], < 0.05 % (w/w); (3 m/2-8° C. (Test Sample C)) < 0.01 % (w/w). Moreover, the ATV-epoxy-dihydroxy (AED) runs as follows: under setting [6], < 0.01 % (w/w); under setting [7], < 0.05 % (w/w); (6 m/2-8° C. (Test Sample D)) < 0.05 % (w/w); under setting [8], < 0.01 % (w/w); under setting [9], < 0.05 % (w/w); (release (Test Sample A)) < 0.01 % (w/w). Besides, the ATV-epoxy-diketone reads like this: under setting [1], under 0.01; under setting [2], under 0.01; under setting [3], under 0.05; under setting [4], under 0.05; under setting [5], under 0.05; (3 m/2-8° C. (Test Sample C)) under 0.05. Besides, the ATV-epoxy-diketone is, setting by setting: under setting [6], under 0.05; under setting [7], 0.05; (6 m/2-8° C. (Test Sample D)) under 0.05; under setting [8], under 0.05; under setting [9], 0.05; (release (Test Sample A)) under 0.01.
